For 16 molecules, Ki and ED50 results are on record in patent publication US8580842B2, “Heteroaryl-substituted 1,3-dihydroindol-2-one derivatives and medicaments containing them” (Abbott GmbH & Co. KG, priority 2003, dated 2013).

One assay deals with T1, human V1b receptors (Homo sapiens, UniProt P47901).
T1 construct: expressed in transfected cells; host or cells: CHO-K1 (membrane preparation V1b-3H2)
T1 sequence (P47901 1-424): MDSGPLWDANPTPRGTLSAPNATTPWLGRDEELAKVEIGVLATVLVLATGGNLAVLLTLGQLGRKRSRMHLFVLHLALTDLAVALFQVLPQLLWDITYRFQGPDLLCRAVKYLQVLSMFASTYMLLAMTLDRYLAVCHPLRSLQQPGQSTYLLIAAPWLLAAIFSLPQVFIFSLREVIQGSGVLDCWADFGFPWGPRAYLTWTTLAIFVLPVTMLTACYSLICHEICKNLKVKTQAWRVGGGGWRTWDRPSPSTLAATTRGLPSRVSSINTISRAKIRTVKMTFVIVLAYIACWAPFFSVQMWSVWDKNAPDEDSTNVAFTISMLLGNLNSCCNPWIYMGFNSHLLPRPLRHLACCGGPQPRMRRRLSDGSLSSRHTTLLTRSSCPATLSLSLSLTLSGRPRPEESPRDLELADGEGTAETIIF
The assay can be described thus: Vasopressin V1b receptor binding assay. The following applies: membranes from CHO-K1 cells expressing human V1b receptors, displacement of 1.5 nM 3H-AVP; read-out: Binding affinity for the vasopressin V1b receptor. Put shortly: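 Membranes from CHO-K1 cells stably expressing human V1b incubated with 1.5 nM ³H-AVP and test compound in 50 mM Tris, 10 mM MgCl2, 0.1% BSA, pH 7.4, 60 min at room temperature; non-specific binding with 10^−6 M AVP. Filtration and scintillation counting in triplicate; binding parameters by non-linear regression.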

A further assay concerns Male Sprague Dawley rats. In words: Rat forced swim test. The note with it: ip; rat forced swim model, intraperitoneal route, three times before re-testing; read-out: ED50 (decrease of immobility time). Type of assay: in vivo. The text has this: Antidepressant Effects of Compounds of this Invention in the Rat Forced Swim Model
The potential antidepressant effects of some examples of this invention were examined in the rat forced swim test. When rats are forced to swim in a cylinder from which no escape is possible they readily adopt a characteristic immobile posture and make no further attempts to escape except for small movements needed to keep floating. The immobility is considered to reflect a ‘depressive mood’ (Porsolt R D, LePichon M, Jalfre M (1977). Depression: a new animal model sensitive to antidepressant treatment. Nature 266, 730-732.), in which animals cease to struggle to escape the aversive situation. The immobility induced by the procedure is influenced by a wide variety of antidepressants (Porsolt R D, Lenegre A, McArthur R A (1991). Pharmacological models of depression. In: Animal models in Psychopharmacology. B. Olivier, J. Mos, J. L. Slangen (eds) Birkhauser Verlag, Basel, pp. 137-159.) and has a good predictive validity in that it detects antidepressants with different mechanisms of action. Administration of antidepressants such as fluoxetine increases the time an animal struggles (decreases the immobility time) when forced to swim in a confined space. Lack of struggling is thought to represent a state of despair.
Procedure: Male Sprague Dawley rats (Janvier) weighing 160-200 gram (n=6) were placed individually into a glass water tank (40 cm×21.5 cm) filled with tap water (25° C.) up to 18 cm. This pre-test lasted for 15 min. Twenty-four hours later, animals were re-tested for 5 min in the same water tank while the total immobility time, swimming time and climbing time were recorded. Rats were considered immobile when they made no further attempts to escape, except for movements necessary to keep their heads above water (Porsolt R D, Anton G, Blavet N & Jalfre M. (1978). Behavioural despair in rats: a new model sensitive to antidepressant treatments. European Journal of Pharmacology 47, 379-391). The absence of hind limb movements was recorded as immobility using a stopwatch by a single observer. […]

Turning to `COc1ccc(S(=O)(=O)N2C(=O)C(c3cccnc3OC)(N3C[C@H](O)C[C@H]3C(=O)N(C)C)c3cc(Cl)ccc32)c(OC)c1` (single isomer, unassigned) [Example 5], the Ki on human V1b receptors was below 50 nM. The ED50 in the assay with Male Sprague Dawley rats is below 30 mg/kg.

Consider `COc1ccccc1C1(N2C[C@H](O)C[C@H]2C(=O)N(C)C)C(=O)N(S(=O)(=O)c2cccs2)c2ccc(Cl)cc21` (single isomer, unassigned) [Example 29], for which, at human V1b receptors, the Ki is below 50 nM. Also, in the assay on Male Sprague Dawley rats, the ED50 is below 30 mg/kg.

As to `CCOc1ccccc1C1(OC(=O)N2CCN(C3CCN(C)CC3)CC2)C(=O)N(S(=O)(=O)c2ccc(C)cn2)c2ccc(Cl)cc21` (stereo not drawn) [Example 145, 4-(1-Methyl-piperidin-4-yl)-piperazine-1-carboxylic acid 5-chloro-3-(2-ethoxy-phenyl)-1-(5-methyl-pyridine-2-sulfonyl)-2-oxo-2,3-dihydro-1H-indol-3-yl ester], on human V1b receptors, the Ki is below 50 nM.

Regarding `CCOc1ccccc1C1(OC(=O)N2CCN(C3CCN(C)CC3)CC2)C(=O)N(S(=O)(=O)c2cccc3cccnc23)c2ccc(OC)cc21` (stereo not drawn) [Example 154, 4-(1-Methyl-piperidin-4-yl)-piperazine-1-carboxylic acid 3-(2-ethoxy-phenyl)-5-methoxy-2-oxo-1-(quinoline-8-sulfonyl)-2,3-dihydro-1H-indol-3-yl ester], at human V1b receptors, the Ki is below 50 nM.

With `CCOc1ccccc1C1(OC(=O)N2CCN(C3CCN(C)CC3)CC2)C(=O)N(S(=O)(=O)c2cccc3cccnc23)c2ccc(C#N)cc21` (stereo not drawn) [Example 158, 4-(1-Methyl-piperidin-4-yl)-piperazine-1-carboxylic acid 5-cyano-3-(2-ethoxy-phenyl)-2-oxo-1-(quinoline-8-sulfonyl)-2,3-dihydro-1H-indol-3-yl ester], the Ki on human V1b receptors was below 50 nM.

With `COc1ncccc1C1(OC(=O)N2CCN(C3CCN(C)CC3)CC2)C(=O)N(S(=O)(=O)c2cn(C)cn2)c2ccc(Cl)cc21` (stereo not drawn) [Example 165, 4-(1-Methyl-piperidin-4-yl)-piperazine-1-carboxylic acid 5-chloro-3-(2-methoxy-pyridin-3-yl)-1-(1-methyl-1H-imidazole-4-sulfonyl)-2-oxo-2,3-dihydro-1H-indol-3-yl ester diacetate], at human V1b receptors, the Ki lay within 50 to 500 nM.

For `COc1ncccc1C1(OC(=O)N2CCN(C3CCN(C)CC3)CC2)C(=O)N(S(=O)(=O)c2cn(C)c(C)n2)c2ccc(Cl)cc21` (stereo not drawn) [Example 166, 4-(1-Methyl-piperidin-4-yl)-piperazine-1-carboxylic acid 5-chloro-1-(1,2-dimethyl-1H-imidazole-4-sulfonyl)-3-(2-methoxy-pyridin-3-yl)-2-oxo-2,3-dihydro-1H-indol-3-yl ester diacetate], the Ki on human V1b receptors fell in the range of 50 to 500 nM.

As to `COc1ncccc1C1(OC(=O)N2CCN(C3CCN(C)CC3)CC2)C(=O)N(S(=O)(=O)c2ccc(C)s2)c2ccc(Cl)cc21` (stereo not drawn) [Example 168, 4-(1-Methyl-piperidin-4-yl)-piperazine-1-carboxylic acid 5-chloro-3-(2-methoxy-pyridin-3-yl)-1-(5-methyl-thiophene-2-sulfonyl)-2-oxo-2,3-dihydro-1H-indol-3-yl ester diacetate], the Ki at human V1b receptors is below 50 nM.

For `COc1ncccc1C1(OC(=O)N2CCN(C3CCN(C)CC3)CC2)C(=O)N(S(=O)(=O)c2cc(C)sc2C)c2ccc(Cl)cc21` (stereo not drawn) [Example 169, 4-(1-Methyl-piperidin-4-yl)-piperazine-1-carboxylic acid 5-chloro-1-(2,5-dimethyl-thiophene-3-sulfonyl)-3-(2-methoxy-pyridin-3-yl)-2-oxo-2,3-dihydro-1H-indol-3-yl ester diacetate], at human V1b receptors, the Ki was in the range of 50 to 500 nM.

As to `COc1ncccc1C1(OC(=O)N2CCN(C3CCN(C)CC3)CC2)C(=O)N(S(=O)(=O)c2csc3ccccc23)c2ccc(Cl)cc21` (stereo not drawn) [Example 170, 4-(1-Methyl-piperidin-4-yl)-piperazine-1-carboxylic acid 1-(benzo[b]thiophene-3-sulfonyl)-5-chloro-3-(2-methoxy-pyridin-3-yl)-2-oxo-2,3-dihydro-1H-indol-3-yl ester diacetate], the Ki at human V1b receptors was in the range of 50 to 500 nM.

`COc1ncccc1C1(OC(=O)N2CCN(C3CCN(C)CC3)CC2)C(=O)N(S(=O)(=O)c2ccsc2)c2ccc(Cl)cc21` (stereo not drawn) [Example 171, 4-(1-Methyl-piperidin-4-yl)-piperazine-1-carboxylic acid 5-chloro-3-(2-methoxy-pyridin-3-yl)-2-oxo-1-(thiophene-3-sulfonyl)-2,3-dihydro-1H-indol-3-yl ester diacetate]: the Ki at human V1b receptors is below 50 nM.

Consider `COc1ncccc1C1(OC(=O)N2CCN(C3CCN(C)CC3)CC2)C(=O)N(S(=O)(=O)c2cc3ccccc3s2)c2ccc(Cl)cc21` (stereo not drawn) [Example 172, 4-(1-Methyl-piperidin-4-yl)-piperazine-1-carboxylic acid 1-(benzo[b]thiophene-2-sulfonyl)-5-chloro-3-(2-methoxy-pyridin-3-yl)-2-oxo-2,3-dihydro-1H-indol-3-yl ester diacetate], for which the Ki on human V1b receptors lay in the range of 50 to 500 nM.

With `COc1ccc(S(=O)(=O)N2C(=O)C(c3cccnc3OC)(N(C)[C@@H](C)C(=O)N(C)C)c3cc(Cl)ccc32)c(OC)c1` (stereo partly drawn) [Example 220], the Ki on human V1b receptors is below 50 nM.

For `COc1ccc(S(=O)(=O)N2C(=O)C(c3ccc[nH]c3=O)(N3C[C@H](O)C[C@H]3C(=O)N(C)C)c3cc(Cl)ccc32)c(OC)c1` (stereo partly drawn) [Example 224, (2S,4R)-1-[5-Chloro-1-(2,4-dimethoxy-benzenesulfonyl)-2-oxo-3-(2-oxo-1,2-dihydro-pyridin-3-yl)-2,3-dihydro-1H-indol-3-yl]-4-hydroxy-pyrrolidine-2-carlboxylic acid dimethylamide], on human V1b receptors, the Ki is below 50 nM.

As to `COc1ccc(S(=O)(=O)N2C(=O)[C@@](c3ccccc3OC)(N3C[C@H](O)C[C@H]3C(=O)N(C)C)c3cc(Cl)ccc32)c(OC)c1` [SSR149415, reference compound], the ED50 with Male Sprague Dawley rats is above 30 mg/kg.

“(2S,4R)-1-[5-Chloro-3-(2,4-dimethoxy-pyrimidin-5-yl)-1-(5-methyl-pyridine-2-sulfonyl)-2-oxo-2,3-dihydro-1H-indol-3-yl]-4-hydroxy-pyrrolidine-2-carboxylic acid dimethylamide [Example 289]”: the Ki at human V1b receptors was below 50 nM.

A word on the ED50: it is the dose at which the effect has come halfway, by size or by number of responders.
